Measured values: paper PMC9317966, “Structure-function analysis of the AMPK activator SC4 and identification of a potent pan AMPK activator” (Biochemical Journal, 2022)

Experiments:
HeLa cells = assay: Immunoblot of AMPK signalling in HeLa cells; assay type: cell-based; settings: 2.5 µM, 1 h
Description: To evaluate the efficacy of MSG011 in cellulo, we incubated mouse primary hepatocytes with 2.5 µM MSG011 for 60 min and tracked changes in phosphorylation of AMPK α-Thr172 (marker of activation) and the AMPK substrate acetyl-CoA carboxylase (ACC) Ser79 (AMPK signalling marker).
HEK293T/17, HEK293T, COS7, HeLa and PC3 cells (ATCC) were maintained in Dulbecco's Modified Eagle's medium (DMEM; Sigma–Aldrich) supplemented with 10% fetal bovine serum (FBS; Assay Matrix) at 37°C and 5% CO2. Primary hepatocytes from wild type mice were prepared using the collagenase perfusion method and cultured as described previously. Cultures were incubated with fresh DMEM (no FBS) for 2 h prior to 1 h treatment with MSG011 (dissolved in DMSO) or phenformin (dissolved in H2O). Adherent HEK293T/17 cells at ∼50% confluency were triply transfected with AMPK α1 (pcDNA3.1 vector), β1 (COOH-terminal MYC fusion, pcDNA3.1 vector) and WT γ1 or γ1-R299G mutant (NH2-terminal HA fusion, pMT2 vector) in the presence of FuGENE HD transfection reagent (Promega) as per the manufacturers protocol. […]
All samples were separated on 12% SDS–PAGE gels and transferred to an Immobilon-FL PVDF membrane (Merck Millipore). […] Immunoblots were visualised on the Odyssey Infrared Imaging System (LI-COR Biosciences) and immunoreactive bands analysed and quantified using Image Studio Software (LI-COR Biosciences).

human GST-AMPK α2β1γ1 = biological target: T1, human GST-AMPK α2β1γ1 (Homo sapiens, UniProt P54646+Q9Y478); assay: Radiolabel SAMS kinase assay, GST-AMPK from HEK293T/17 cells immobilised on glutathione-Sepharose; assay type: biochemical; settings: 1 µM compound
T1 construct: triply transfected with full-length AMPK α1 or α2 (NH2-terminal GST fusion, pDEST27 vector); full-length AMPK α1 or α2 (NH2-terminal GST fusion, pDEST27 vector), β1 or β2 (COOH-terminal FLAG fusion, pcDNA3.1 vector); FLAG (C); made in house; host or cells: HEK293T/17 cells, transient triple transfection
Method in brief: (§1)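 GST-AMPK complexes were expressed in HEK293T/17 cells and immobilised on glutathione-Sepharose. Phosphorylation of 100 µM SAMS peptide was run with 200 µM ATP plus [γ-³²P]-ATP and 5 mM MgCl2 in HEPES pH 7.4, 10 min at 30°C, with or without 1 µM compound. ³²P incorporation was measured on phosphocellulose by scintillation counting.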

human GST-AMPK α2β2γ1 = biological target: T2, human GST-AMPK α2β2γ1 (Homo sapiens, UniProt O43741+P54646); assay: as above; assay type: biochemical; settings: 1 µM compound
T2 construct: triply transfected with full-length AMPK α1 or α2 (NH2-terminal GST fusion, pDEST27 vector); full-length AMPK α1 or α2 (NH2-terminal GST fusion, pDEST27 vector), β1 or β2 (COOH-terminal FLAG fusion, pcDNA3.1 vector); FLAG (C); made in house; host or cells: HEK293T/17 cells, transient triple transfection
Method in brief: as §1

human GST-AMPK α1β2γ1 = biological target: T3, human GST-AMPK α1β2γ1 (Homo sapiens, UniProt O43741+Q13131); assay: as above; assay type: biochemical; settings: 1 µM compound
T3 construct: triply transfected with full-length AMPK α1 or α2 (NH2-terminal GST fusion, pDEST27 vector); full-length AMPK α1 or α2 (NH2-terminal GST fusion, pDEST27 vector), β1 or β2 (COOH-terminal FLAG fusion, pcDNA3.1 vector); FLAG (C); made in house; host or cells: HEK293T/17 cells, transient triple transfection
Method in brief: as §1

T1 sequence (P54646 whole entry, the tested form may be a part): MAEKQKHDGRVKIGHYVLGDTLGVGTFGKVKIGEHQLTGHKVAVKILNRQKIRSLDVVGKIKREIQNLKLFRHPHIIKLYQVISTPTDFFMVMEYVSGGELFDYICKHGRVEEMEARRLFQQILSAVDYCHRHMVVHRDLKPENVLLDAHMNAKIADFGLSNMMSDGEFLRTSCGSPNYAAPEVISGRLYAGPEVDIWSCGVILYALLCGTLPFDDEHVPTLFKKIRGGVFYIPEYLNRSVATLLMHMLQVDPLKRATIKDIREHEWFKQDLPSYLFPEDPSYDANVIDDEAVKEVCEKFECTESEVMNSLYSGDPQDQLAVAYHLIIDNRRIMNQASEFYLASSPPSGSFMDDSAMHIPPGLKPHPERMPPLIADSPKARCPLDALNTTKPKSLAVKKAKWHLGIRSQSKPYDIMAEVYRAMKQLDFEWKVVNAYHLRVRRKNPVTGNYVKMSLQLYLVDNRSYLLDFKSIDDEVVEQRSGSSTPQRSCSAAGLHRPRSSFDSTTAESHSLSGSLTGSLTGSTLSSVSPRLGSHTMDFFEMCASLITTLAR
T1 sequence (Q9Y478 whole entry, the tested form may be a part): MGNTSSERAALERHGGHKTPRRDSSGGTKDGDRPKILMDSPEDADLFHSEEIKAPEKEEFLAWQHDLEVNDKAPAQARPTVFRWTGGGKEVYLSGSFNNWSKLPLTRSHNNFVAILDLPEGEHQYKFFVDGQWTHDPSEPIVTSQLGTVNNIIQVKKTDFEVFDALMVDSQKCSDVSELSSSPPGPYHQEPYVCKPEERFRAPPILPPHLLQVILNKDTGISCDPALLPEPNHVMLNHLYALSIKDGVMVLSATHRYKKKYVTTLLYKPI
T1 sequence (P54619 whole entry partner, the tested form may be a part): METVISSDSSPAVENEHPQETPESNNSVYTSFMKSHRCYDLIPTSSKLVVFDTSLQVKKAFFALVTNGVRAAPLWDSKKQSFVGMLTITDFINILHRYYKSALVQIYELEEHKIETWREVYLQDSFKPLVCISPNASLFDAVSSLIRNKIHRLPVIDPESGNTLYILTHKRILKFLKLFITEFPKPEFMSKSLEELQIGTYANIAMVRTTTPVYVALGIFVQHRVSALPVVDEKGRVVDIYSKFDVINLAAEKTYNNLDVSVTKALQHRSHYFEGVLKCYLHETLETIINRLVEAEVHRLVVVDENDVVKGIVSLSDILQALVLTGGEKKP
T2 sequence (P54646 whole entry, the tested form may be a part): as the sequence (P54646 whole entry, the tested form may be a part) above
T2 sequence (O43741 whole entry, the tested form may be a part): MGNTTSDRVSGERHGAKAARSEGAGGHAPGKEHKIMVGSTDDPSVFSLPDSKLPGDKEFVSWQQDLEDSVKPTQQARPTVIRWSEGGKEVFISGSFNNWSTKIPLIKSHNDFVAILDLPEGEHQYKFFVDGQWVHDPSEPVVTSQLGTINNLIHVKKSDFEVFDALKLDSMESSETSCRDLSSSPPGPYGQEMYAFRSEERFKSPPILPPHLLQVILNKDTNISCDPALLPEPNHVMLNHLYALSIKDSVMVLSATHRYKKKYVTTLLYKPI
T2 sequence (P54619 whole entry partner, the tested form may be a part): as the sequence (P54619 whole entry partner, the tested form may be a part) above
T3 sequence (Q13131 whole entry, the tested form may be a part): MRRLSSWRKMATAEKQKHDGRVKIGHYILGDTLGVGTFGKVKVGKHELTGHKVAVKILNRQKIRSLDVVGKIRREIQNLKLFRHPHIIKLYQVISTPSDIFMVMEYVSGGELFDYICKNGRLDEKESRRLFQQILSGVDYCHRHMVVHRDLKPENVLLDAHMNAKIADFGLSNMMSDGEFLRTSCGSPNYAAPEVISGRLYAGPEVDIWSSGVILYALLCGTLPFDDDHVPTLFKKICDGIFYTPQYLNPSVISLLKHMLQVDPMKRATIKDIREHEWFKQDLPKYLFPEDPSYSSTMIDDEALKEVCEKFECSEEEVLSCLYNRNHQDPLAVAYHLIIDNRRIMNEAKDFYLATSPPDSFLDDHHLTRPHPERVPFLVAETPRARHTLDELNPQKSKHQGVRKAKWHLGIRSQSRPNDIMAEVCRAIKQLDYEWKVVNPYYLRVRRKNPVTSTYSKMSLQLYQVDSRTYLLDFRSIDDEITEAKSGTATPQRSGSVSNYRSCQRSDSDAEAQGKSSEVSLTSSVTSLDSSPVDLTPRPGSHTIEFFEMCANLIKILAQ
T3 sequence (O43741 whole entry, the tested form may be a part): as the sequence (O43741 whole entry, the tested form may be a part) above
T3 sequence (P54619 whole entry partner, the tested form may be a part): as the sequence (P54619 whole entry partner, the tested form may be a part) above

For `CC(=O)NC1CC=C(c2ccc(-c3nc4nc(Oc5ccc(C)c(C(=O)O)c5)[nH]c4cc3Cl)cc2)CC1` (stereo not shown) [MSG011, 5-((5-(4′-Acetamido-2′,3′,4′,5′-tetrahydro-[1,1′-biphenyl]-4-yl)-6-chloro-1H-imidazo[4,5-b]pyridin-2-yl)oxy)-2-methylbenzoic acid], the “AMPK signalling (phosphorylation of ACC-Ser79 and raptor-Ser792)” value (HeLa cells) was “significantly activated AMPK”, the “fold AMPK activation relative to vehicle” value (human GST-AMPK α2β1γ1) was greater than 2.2 fold and the “fold AMPK activation relative to vehicle” value (human GST-AMPK α2β2γ1) was greater than 2.2 fold. For the same compound, the “fold AMPK activation relative to vehicle” value (human GST-AMPK α1β2γ1) was greater than 2.2 fold.
